Results as given in PubChem BioAssay (NCI).
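Interpolation was linear, between the two tested concentrations surrounding the appropriate level; five concentrations were tested over 48 hours in 96-well plates. GI50 = concentration required for 50% inhibition of growth. TGI: total growth inhibition.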

Key:
Test in all cases: NCI anticancer screen, dose series, 48 h
IGROV1 ovarian = tested on: IGROV1 ovarian
MDA-MB-231 breast = tested on: MDA-MB-231 breast
A498 renal = tested on: A498 renal
SK-MEL-28 melanoma = tested on: SK-MEL-28 melanoma
BT-549 breast = tested on: BT-549 breast
U251 CNS = tested on: U251 CNS
HOP-62 NSCLC = tested on: HOP-62 NSCLC
M14 melanoma = tested on: M14 melanoma
OVCAR-5 ovarian = tested on: OVCAR-5 ovarian
HL-60(TB) leukemia = tested on: HL-60(TB) leukemia
OVCAR-3 ovarian = tested on: OVCAR-3 ovarian
KM12 colon = tested on: KM12 colon
MDA-MB-435 = tested on: MDA-MB-435
NCI-H522 lung = tested on: NCI-H522 lung
NCI-H23 lung = tested on: NCI-H23 lung
EKVX NSCLC = tested on: EKVX NSCLC
OVCAR-4 ovarian = tested on: OVCAR-4 ovarian
SW-620 colon = tested on: SW-620 colon
SK-OV-3 ovarian = tested on: SK-OV-3 ovarian
A549 NSCLC = tested on: A549 NSCLC
ACHN renal = tested on: ACHN renal
HCT-15 colon = tested on: HCT-15 colon
COLO 205 colon = tested on: COLO 205 colon
LOX IMVI melanoma = tested on: LOX IMVI melanoma
HCT-116 colon = tested on: HCT-116 colon
TK-10 renal = tested on: TK-10 renal
MALME-3M melanoma = tested on: MALME-3M melanoma
SK-MEL-5 melanoma = tested on: SK-MEL-5 melanoma
HT29 colon = tested on: HT29 colon
CAKI-1 renal = tested on: CAKI-1 renal
UO-31 renal = tested on: UO-31 renal
T-47D breast = tested on: T-47D breast
OVCAR-8 ovarian = tested on: OVCAR-8 ovarian
HCC-2998 colon = tested on: HCC-2998 colon
HOP-92 NSCLC = tested on: HOP-92 NSCLC
UACC-257 melanoma = tested on: UACC-257 melanoma
SF-539 CNS = tested on: SF-539 CNS
PC-3 prostate = tested on: PC-3 prostate
SK-MEL-2 melanoma = tested on: SK-MEL-2 melanoma
DU-145 prostate = tested on: DU-145 prostate
SF-295 CNS = tested on: SF-295 CNS
SNB-19 CNS = tested on: SNB-19 CNS
SR leukemia = tested on: SR leukemia
SNB-75 CNS = tested on: SNB-75 CNS
RPMI-8226 leukemia = tested on: RPMI-8226 leukemia
SF-268 CNS = tested on: SF-268 CNS
HS 578T breast = tested on: HS 578T breast
UACC-62 melanoma = tested on: UACC-62 melanoma
K-562 leukemia = tested on: K-562 leukemia
RXF 393 renal = tested on: RXF 393 renal
786-0 renal = tested on: 786-0 renal
NCI-H226 lung = tested on: NCI-H226 lung
MCF7 breast = tested on: MCF7 breast
SN12C renal = tested on: SN12C renal
NCI/ADR-RES ovarian = tested on: NCI/ADR-RES ovarian
MOLT-4 leukemia = tested on: MOLT-4 leukemia
NCI-H460 lung = tested on: NCI-H460 lung
CCRF-CEM leukemia = tested on: CCRF-CEM leukemia

COc1ccc(-c2nc(-c3cn(C)c4ncccc34)cs2)cc1
GI50 (IGROV1 ovarian): > 100 µM
TGI (IGROV1 ovarian): > 100 µM
GI50 (MDA-MB-231 breast): 75.3 µM
TGI (MDA-MB-231 breast): > 100 µM
GI50 (A498 renal): 0.776 µM
TGI (A498 renal): 93.9 µM
GI50 (SK-MEL-28 melanoma): 79.3 µM
TGI (SK-MEL-28 melanoma): > 100 µM
GI50 (BT-549 breast): 68 µM
TGI (BT-549 breast): > 100 µM
GI50 (U251 CNS): 78.5 µM
TGI (U251 CNS): > 100 µM
GI50 (HOP-62 NSCLC): > 100 µM
TGI (HOP-62 NSCLC): > 100 µM
GI50 (M14 melanoma): 28.2 µM
TGI (M14 melanoma): > 100 µM
GI50 (OVCAR-5 ovarian): > 100 µM
TGI (OVCAR-5 ovarian): > 100 µM
GI50 (HL-60(TB) leukemia): 9.11 µM
TGI (HL-60(TB) leukemia): > 100 µM
GI50 (OVCAR-3 ovarian): 41.6 µM
TGI (OVCAR-3 ovarian): > 100 µM
GI50 (KM12 colon): 8.01 µM
TGI (KM12 colon): > 100 µM
GI50 (MDA-MB-435): 2.79 µM
TGI (MDA-MB-435): > 100 µM
GI50 (NCI-H522 lung): 14.9 µM
TGI (NCI-H522 lung): > 100 µM
GI50 (NCI-H23 lung): > 100 µM
TGI (NCI-H23 lung): > 100 µM
GI50 (EKVX NSCLC): 17.4 µM
TGI (EKVX NSCLC): > 100 µM
GI50 (OVCAR-4 ovarian): > 100 µM
TGI (OVCAR-4 ovarian): > 100 µM
GI50 (SW-620 colon): 19.3 µM
TGI (SW-620 colon): > 100 µM
GI50 (SK-OV-3 ovarian): > 100 µM
TGI (SK-OV-3 ovarian): > 100 µM
GI50 (A549 NSCLC): 76.1 µM
TGI (A549 NSCLC): > 100 µM
GI50 (ACHN renal): 91.7 µM
TGI (ACHN renal): > 100 µM
GI50 (HCT-15 colon): 25.3 µM
TGI (HCT-15 colon): > 100 µM
GI50 (COLO 205 colon): 29 µM
TGI (COLO 205 colon): > 100 µM
GI50 (LOX IMVI melanoma): 54.1 µM
TGI (LOX IMVI melanoma): > 100 µM
GI50 (HCT-116 colon): 38.4 µM
TGI (HCT-116 colon): > 100 µM
GI50 (TK-10 renal): > 100 µM
TGI (TK-10 renal): > 100 µM
GI50 (MALME-3M melanoma): 22.2 µM
TGI (MALME-3M melanoma): > 100 µM
GI50 (SK-MEL-5 melanoma): 16.9 µM
TGI (SK-MEL-5 melanoma): > 100 µM
GI50 (HT29 colon): 17.3 µM
TGI (HT29 colon): > 100 µM
GI50 (CAKI-1 renal): 18.2 µM
TGI (CAKI-1 renal): > 100 µM
GI50 (UO-31 renal): > 100 µM
TGI (UO-31 renal): > 100 µM
GI50 (T-47D breast): 12.5 µM
TGI (T-47D breast): > 100 µM
GI50 (OVCAR-8 ovarian): > 100 µM
TGI (OVCAR-8 ovarian): > 100 µM
GI50 (HCC-2998 colon): 80.6 µM
TGI (HCC-2998 colon): > 100 µM
GI50 (HOP-92 NSCLC): 2.02 µM
TGI (HOP-92 NSCLC): 55.9 µM
GI50 (UACC-257 melanoma): > 100 µM
TGI (UACC-257 melanoma): > 100 µM
GI50 (SF-539 CNS): 92.7 µM
TGI (SF-539 CNS): > 100 µM
GI50 (PC-3 prostate): 18.3 µM
TGI (PC-3 prostate): > 100 µM
GI50 (SK-MEL-2 melanoma): 55.3 µM
TGI (SK-MEL-2 melanoma): > 100 µM
GI50 (DU-145 prostate): > 100 µM
TGI (DU-145 prostate): > 100 µM
GI50 (SF-295 CNS): 20.3 µM
TGI (SF-295 CNS): > 100 µM
GI50 (SNB-19 CNS): > 100 µM
TGI (SNB-19 CNS): > 100 µM
GI50 (SR leukemia): 9.7 µM
TGI (SR leukemia): > 100 µM
GI50 (SNB-75 CNS): > 100 µM
TGI (SNB-75 CNS): > 100 µM
GI50 (RPMI-8226 leukemia): 37.1 µM
TGI (RPMI-8226 leukemia): > 100 µM
GI50 (SF-268 CNS): 82.6 µM
TGI (SF-268 CNS): > 100 µM
GI50 (HS 578T breast): > 100 µM
TGI (HS 578T breast): > 100 µM
GI50 (UACC-62 melanoma): 13 µM
TGI (UACC-62 melanoma): > 100 µM
GI50 (K-562 leukemia): 5.05 µM
TGI (K-562 leukemia): > 100 µM
GI50 (RXF 393 renal): 55.2 µM
TGI (RXF 393 renal): > 100 µM
GI50 (786-0 renal): 51.5 µM
TGI (786-0 renal): > 100 µM
GI50 (NCI-H226 lung): > 100 µM
TGI (NCI-H226 lung): > 100 µM
GI50 (MCF7 breast): 12.5 µM
TGI (MCF7 breast): > 100 µM
GI50 (SN12C renal): > 100 µM
TGI (SN12C renal): > 100 µM
GI50 (NCI/ADR-RES ovarian): 11.9 µM
TGI (NCI/ADR-RES ovarian): > 100 µM
GI50 (MOLT-4 leukemia): 18.9 µM
TGI (MOLT-4 leukemia): > 100 µM
GI50 (NCI-H460 lung): 32.9 µM
TGI (NCI-H460 lung): > 100 µM
GI50 (CCRF-CEM leukemia): > 100 µM
TGI (CCRF-CEM leukemia): > 100 µM
